Values of other authors in patent US6500632B1, “Assay for screening inhibitors of C4 plant enzymes” (Australian Institute of Marine Science, priority 1998, dated 2002).

Assays:
[1] = target: T1, phosphoenolpyruvate carboxylase (Zea mays, UniProt P04711); details: literature (Jenkins et al.; McFadden et al.)
T1 sequence (P04711 1-970): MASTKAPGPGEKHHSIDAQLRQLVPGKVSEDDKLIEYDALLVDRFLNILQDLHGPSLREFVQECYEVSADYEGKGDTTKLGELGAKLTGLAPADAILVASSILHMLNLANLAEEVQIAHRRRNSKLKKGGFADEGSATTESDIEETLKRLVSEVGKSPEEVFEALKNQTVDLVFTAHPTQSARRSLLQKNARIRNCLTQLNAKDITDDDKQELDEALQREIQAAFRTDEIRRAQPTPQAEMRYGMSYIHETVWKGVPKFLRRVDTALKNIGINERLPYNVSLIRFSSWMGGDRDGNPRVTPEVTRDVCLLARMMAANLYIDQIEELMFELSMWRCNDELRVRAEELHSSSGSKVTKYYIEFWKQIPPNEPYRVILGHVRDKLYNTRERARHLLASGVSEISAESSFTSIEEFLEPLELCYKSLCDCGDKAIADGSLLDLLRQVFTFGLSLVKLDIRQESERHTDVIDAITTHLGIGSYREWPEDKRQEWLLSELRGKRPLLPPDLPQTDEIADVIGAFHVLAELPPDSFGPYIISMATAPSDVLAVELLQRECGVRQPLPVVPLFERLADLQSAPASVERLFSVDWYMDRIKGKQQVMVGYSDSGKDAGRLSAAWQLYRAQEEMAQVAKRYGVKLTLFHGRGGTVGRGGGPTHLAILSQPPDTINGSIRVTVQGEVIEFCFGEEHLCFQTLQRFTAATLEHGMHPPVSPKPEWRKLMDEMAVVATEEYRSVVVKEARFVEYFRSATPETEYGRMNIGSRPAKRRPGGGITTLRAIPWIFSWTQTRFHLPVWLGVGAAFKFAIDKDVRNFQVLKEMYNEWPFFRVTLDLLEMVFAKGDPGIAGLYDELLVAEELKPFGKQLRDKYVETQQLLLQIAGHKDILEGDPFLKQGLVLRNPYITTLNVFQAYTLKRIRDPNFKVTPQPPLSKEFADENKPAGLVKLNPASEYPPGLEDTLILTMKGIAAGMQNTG

C4 plants = details: literature

3,3-dichloro-2(dihydroxy-phosphinoylmethyl)propenoate
inhibition of a C4 enzyme (phosphoenolpyruvate carboxylase) [1]: specifically inhibited | effect on the growth of C4 plants (C4 plants): no effect
